Assays:
norepinephrine uptake = conditions: background statement; cited from earlier work
serotonin uptake = conditions: background statement; cited from earlier work
[1] = Stability study of bulk material, stability-indicating HPLC; type: physicochemical
Method: Changes are monitored using a stability-indicating HPLC method. Results were calculated by normalized peak area (npa). Degradants are identified by comparison of their relative retention times against impurity standards.

For `CN(C)CC(c1ccc(O)cc1)C1(O)CCCCC1` (stereo not shown) [O-desmethyl venlafaxine], the norepinephrine uptake (norepinephrine uptake) is listed as “inhibit” and the serotonin uptake (serotonin uptake) is listed as “inhibit”.
With “(1-[2-(dimethylamino)-1-(4-phenol)ethyl]-cyclohexanol succinate [Form V]” the “polymorph and chemical stability demonstrated” value ([1]; elevated temperatures and humidity (40° C./75%)) was 2 months and the “polymorph stability and formation of known and unknown degradants” value ([1]; stored for over 3 to 6 months under normal conditions of temperature and humidity) was “stable”.
